Assay results from patent publication US6710055B2, “Disubstituted bicyclic heterocycles, the preparation thereof, and their use as pharmaceutical compositions” (Boehringer Ingelheim Pharma GmbH & Co., KG, priority 1997, dated 2004).
Like-named read-outs stand apart in the source and are kept apart here.

Assays:
Test thrombin (bovine) = molecular target: T1, Test thrombin (bovine) (Bos taurus, UniProt P00735); assay: Thrombin time in human citrated plasma (Biomatic B10 coagulometer); type: biochemical
T1 construct: purchased Behring Werke, Marburg
Method: were investigated as follows for their effects on thrombin time:
Materials: plasma, from human citrated blood.
Test thrombin (bovine), 30U/mL, Behring Werke, Marburg
Diethylbarbiturate acetate buffer, ORWH 60/61, Behring Werke, Marburg
Biomatic B10 coagulometer, Sarstedt
The thrombin time was determined using a Biomatic B10 coagulometer made by Messrs. Sarstedt. As the test substance, 0.1 mL of human citrated plasma and 0.1 mL diethylbarbiturate buffer (DBA buffer) were added to the test strip prescribed by the manufacturer. The mixture was incubated for one minute at 37° C. The clotting reaction was started by the addition of 0.3 U test thrombin in 0.1 mL DBA buffer. The time is measured using the apparatus from the addition of the thrombin up to the clotting of the mixture. Mixtures to which 0.1 mL of DBA buffer were added were used as the controls.

thrombocyte aggregation = assay: Inhibitory effect on thrombocyte aggregation; type: cell-based
rats = details: doses of up to 10 mg/kg i.v.
[1] = concentration at which the thrombin time is double compared with the control, human citrated plasma, 0.3 U test thrombin (bovine), 37° C.

| SMILES | Thrombin time (ED200 in μM) (Test thrombin (bovine); [1]) [µM] | further results |
| --- | --- | --- |
| CCOC(=O)CCN(c1ccccc1)S(=O)(=O)c1ccc2c(c1)nc(CNc1ccc(C(=N)N)cc1)n2C.Cl |  | melting point: 188 to 191 °C |
| Cn1c(CNc2ccc(C(=N)N)cc2)nc2cc(C(=O)N(CC(=O)O)c3ccccn3)ccc21 [E, 1-methyl-2-[N-(4-amidinophenyl)aminomethyl]benzimidazol-5-yl-carboxylic acid-N-(2-pyridyl)-N-(hydroxycarbonylmethyl)amide] | 0.09 |  |
| N=C(N)c1ccc(NCc2nc3cc(C(=O)N(CCC(=O)O)c4ccccc4)ccc3s2)cc1 [A, 2-[N-(4-amidinophenyl)aminomethyl]benzthiazole-5-carboxylic acid-N-phenyl-N-(2-carboxyethyl)amide] | 0.04 |  |
| CN(Cc1nc2cc(C(=O)N(CCC(=O)O)c3ccccc3)ccc2s1)c1ccc(C(=N)N)cc1.Cl [Example 16, 2-[N-(4-amidinophenyl)-N-methylaminomethyl]benzothiazol-5-yl-carboxyiic acid-N-phenyl-N-(2-hydroxycarbonylethyl)amide hydrochloride] |  | inhibitory effect on thrombocyte aggregation (thrombocyte aggregation): slight inhibitory effect |
| Cn1c(CCc2ccc(C(=N)N)cc2)nc2cc(C(=O)N(CCCC(=O)O)c3ccccc3)ccc21 [B, 1-methyl-2-[2-(4-amidinophenyl)ethyl]benzimidazol-5-yl-carboxylic acid-N-phenyl-N-(3-hydroxycarbonylpropyl)amide] | 0.06 |  |
| Cn1c(COc2ccc(C(=N)N)cc2)nc2cc(C(=O)N(CC(=O)O)c3ccccc3)ccc21 [C, 1-methyl-2-[(4-amidinophenyl)oxymethyl]benzimidazol-5-yl-carboxylic acid-N-phenyl-N-(hydroxycarbonylmethyl)amide] | 0.15 |  |
| Cn1c(CNc2ccc(C(=N)N)cc2)nc2cc(C(=O)N(CCC(=O)O)c3ccccc3)ccc21 [D, 1-methyl-2-[N-(4-amidinophenyl)aminomethyl]benzimidazol-5-yl-carboxylic acid-N-phenyl-N-(2-hydroxycarbonylethyl)amide] |  | Thrombin time (ED200 in μM) (Test thrombin (bovine)): 0.03 µM |
| Cn1c(CCc2ccc(C(=N)N)cc2)nc2cc(C(=O)N(CCc3nnn[nH]3)c3ccccc3)ccc21 [F, 1-methyl-2-[2-(4-amidinophenyl)ethyl]benzimidazol-5-yl-carboxylic acid-N-phenyl-N-[2-(1H-tetrazol-5-yl)ethyl]amide] | 0.03 |  |
| [H]/N=C(/N)c1ccc(NCc2nc3cc(C(=O)N(CCC(=O)O)c4ccccn4)ccc3n2C)cc1 [G, 1-methyl-2-[N-(4-amidinophenyl)aminomethyl]benzimidazol-5-yl-carboxylic acid-N-(2-pyridyl)-N-(2-hydroxycarbonylethyl)amide] |  | Thrombin time (ED200 in μM) (Test thrombin (bovine)): 0.03 µM; acute toxic side effects (rats): no acute toxic side effects were observed |
